In ChEMBL document CHEMBL3352229, “20(S)-Ginsenoside Rh2 as aldose reductase inhibitor from Panax ginseng” (Bioorg Med Chem Lett, 2014):

These compounds were tested against Aldo-keto reductase family 1 member B1 (Homo sapiens, UniProt P15121) (assay: Inhibition of human recombinant aldose reductase using DL-glyceraldehyde, HRAR and beta-NADPH incubated for 10 mins by spectrophotometry).
In the case of CC(C)=CCC[C@@](C)(O)[C@H]1CC[C@]2(C)[C@@H]1[C@H](O)C[C@@H]1[C@@]3(C)CC[C@H](O[C@@H]4O[C@H](CO)[C@@H](O)[C@H](O)[C@H]4O[C@@H]4O[C@H](CO)[C@@H](O)[C@H](O)[C@H]4O)C(C)(C)[C@@H]3CC[C@]12C, the IC50 is reported as over 200 µM.
For CC(C)=CCC[C@@](C)(O)[C@H]1CC[C@]2(C)[C@@H]1[C@H](O)C[C@@H]1[C@@]3(C)CC[C@H](O[C@@H]4O[C@H](CO)[C@@H](O)[C@H](O)[C@H]4O)C(C)(C)[C@@H]3CC[C@]12C, the IC50 was over 200 µM.
Compound CC(C)=CCC[C@](C)(O)[C@H]1CC[C@@]2(C)[C@@H]1[C@@H](O)C[C@@H]1[C@@]3(C)CC[C@H](O)C(C)(C)[C@@H]3[C@@H](O[C@@H]3O[C@H](CO)[C@@H](O)[C@H](O)[C@H]3O[C@@H]3O[C@H](CO)[C@@H](O)[C@H](O)[C@H]3O)C[C@]12C has an IC50 of over 200 µM.
In the case of CC(C)=CCC[C@](C)(O[C@@H]1O[C@H](CO)[C@@H](O)[C@H](O)[C@H]1O)[C@H]1CC[C@]2(C)[C@@H]1[C@H](O)C[C@@H]1[C@@]3(C)CC[C@H](O)C(C)(C)[C@@H]3CC[C@]12C, the IC50 is reported as over 200 µM.
Work on CC(C)=CCC[C@](C)(O)[C@H]1CC[C@]2(C)[C@@H]1[C@H](O)C[C@@H]1[C@@]3(C)CC[C@H](O[C@@H]4O[C@H](CO)[C@@H](O)[C@H](O)[C@H]4O[C@@H]4O[C@H](CO)[C@@H](O)[C@H](O)[C@H]4O)C(C)(C)[C@@H]3CC[C@]12C yielded an IC50 of over 200 µM.
CC(C)=CCCC(C)(O)[C@H]1CC[C@]2(C)[C@@H]1[C@H](O)C[C@@H]1[C@@]3(C)CC[C@H](O[C@@H]4O[C@H](CO)[C@@H](O)[C@H](O)[C@H]4O)C(C)(C)[C@@H]3CC[C@]12C (mixture of isomers) gave an IC50 of over 200 µM.
CC(C)=CCC[C@](C)(O)[C@H]1CC[C@]2(C)[C@@H]1[C@H](O)C[C@@H]1[C@@]3(C)CC[C@H](O)C(C)(C)[C@@H]3[C@@H](O[C@@H]3O[C@H](CO)[C@@H](O)[C@H](O)[C@H]3O)C[C@]12C [GINSENOSIDE RH1] was tested, and the IC50 was over 200 µM.
For CC(C)=CCC[C@](C)(O)[C@H]1CC[C@]2(C)[C@@H]1[C@H](O)C[C@@H]1[C@@]3(C)CC[C@H](O[C@@H]4O[C@H](CO)[C@@H](O)[C@H](O)[C@H]4O)C(C)(C)[C@@H]3CC[C@]12C [GINSENOSIDE RH2], the IC50 was 147 µM.
